# Measurements reported in patent US20040063624A1, “Method of inhibiting the transition of free HIV virus through the cllular mucosal barrier” (priority 1999, published 2004).
# Experiments:
# HIV-1 strain IIIb [1] = assay: Viral transepithelial transport in two-compartment culture system; format: cell-based; settings: 45 min. incubation; for amount of infectious HIV 1 in the basal compartment: without inhibitor 10^3
# Description: For transepithelial transport experiments, primary epitheilal cells (10^4/ml) were grown on a polycarbonate filter membrane (9 mm diameter 3,0 μm pore diameter, Becon Dickinson) separating a basal and an apical chamber and cultivated for 10 days until confluence was observed. The development of an epithelial monolayer was examined by confocal laser microscopy. To further test for confluence a fluorescein solution (0,2 mg/ml) or fluorescent paricles (10^6 particles/ml each particle 0,1 μm in diameter) were added to the apical chamber and fluorescence activity in the basal chambers was measured after 45 min of incubation at 4° C. to inhibit cell membrane diffusion. For calibration of paracellular diffusion membranes were covered with a layer of 15% polyacrylamide gel leaving free circular areas by placing small cylinders of defined size on the filter before gel casting. Fluorescence activity which diffused from the apical to the basal chamber through different areas of uncovered epithelial cells was measured after the 45 min. incubation.
# (§1) HIV-1 strain IIIb (1,8×10^4 50% tissue culture infective doses [TCID50/ml]) harvested from HIV-1 infected H9 cells was cleared from all debris by centrifugation (10 min. 200×g) and filtered through a 0,2 μm pore size filter membrane. The cell-free virus was diluted 1:10 with Hanks buffer and was placeed in the apical compartment (for details see below). After a 45 min incubation, medium from the lower compartment was harvested. The amount of infectious HIV-1 in the basal chamber of the culture unit was determined by a standard tritation assay Tritation of HIV was performed in triplicate in 24-well tissue culture plates on MT 4 cells seeded at a concentration of 2×10^4/ml. Samples were diluted serially (1:10) in culture medium (RPMI 1640 supplemented with 10% FCS and 5% glutamine). The titration was evaluated between 10 and 14 days postinfection when a prominent cytopathic effect (CPE) was visible. Medium was replaced twice a week with cells being diluted as required. Values of TCID50 per milliliter were determined as described in Reed C. J. et al., 1938, Am. J. Hyg., 27, 494.497. All experiments were performed in triplicate.
# The HIV-1 specificity of the CPE in MT4 cells was confirmed by determination of p24 core protein content by a p24 antigen capture assay (Coulter). […] Experiments were done in triplicate.
# [2] = tested on: transport of gp120 coated particles through the epithelial monolayer; assay: Transepithelial transport of gp120-coated fluorescent particles; format: cell-based, human; settings: for transport of gp120-coated particles, % of the level for unstimulated cells: FSK- and IBMX-treated cells
# From the text: For transepithelial transport studies gp120 was covalently coupled to monodispersed carboxylated fluorescent microparticles (0,1 μm in diameter; Polysciences, Warlington, Pa.) as described previously (Molday R. S., 1975, J. Cell Biol., 64, 75-88). The active groups of the control beads and the remaining gp120 coated beads were blocked with glycine. The attachment of gp120 to the fluoresent particles was quantified by measuring the binding of a monoclonal anti-HIV gp120 antibody to the beads.
# The gp120-coated particles were diluted (10^5 partices/ml) in Hanks buffer and placed in the apical chamber after the epithelial cells were washed three times with Hanks buffer. The apical chamber was transferred into a new basal chamber, and Hanks buffer was changed after 10, 40, 90 min of incubation. The buffer harvested at the indicated time points was centrifuged (14.000×g for 15 min), the pellet was resuspended and the fluorescence activity was measured. A combination of forskolin (FSK 10 μM ) and 3-isobutyl-1-methyl-xantin (IBMX, 10 μm) was used to study the effect of cyclic AMP (cAMP) and epithelial transport. Preincubation of the epithelial cells for 2 h increased the intracellular cAMP level eightfold (cAMP immunoassay: Biomol, Plymouth Meeting, Pa.). Glycine-coated microparticles were used as the control for nonspecific paracellular flow under the experimental conditions: the fluorescence of the controls was subtracted from the fluorescence-activities found in the respective experiments with gp120-coated particles.
# After incubation for 10, 40 and 90 min at 37° C., the solution in the basal chamber was changed and the fluorescence activity was measured as described above.
# To increase the amount of high-mannose-type glycans on the epithelial cells, cells were preincubated for 2 h with 10 mM desoxymannojirimycin (Fuhrmann U. E., 1984, Nature, 307, 755-788). To control the increase of high-mannose-type glycan expression, the filter membrane was cut and placed in 300 μl of lysis buffer (0,2 M Tris-HCl, 2% SDS, 0,1% dithiothreitol). […]
# HIV-1 strain IIIb [3] = assay: Viral intake and release: cell-free HIV-1 taken up by epithelial monolayer, supernatant titrated on MT4 cells; format: cell-based
# Description: Epithelial cells were obtained from biopsies of the gingiva of a healthy donor. The biopsies were washed several times with phosphate-buffered saline and cultured after trypsinization in Dulbecco modified Eagle medium containing 10% fetal calf serum (FCS). Fibroblast growth was suppressed by the addition of recombinant epidermal growth factor (10 μg/liters Sigma, Deisenhofen, Germany) to the culture medium. The epithelial character of the primary cells and the formation of tight junctions were confirmed morphologically by electron microscopy.
# as §1
# HIV-1 strain IIIb (1,8×10^5 TCID50/ml) was placed on epithelial cells (10^6/petri dish). […] After a 1-h incubation, the cells were washed three times with trysin (0,25%) and incubated for 10 min at 37° C. with trypsin solution to inactivate all virus particles adsorbed at the cell surface. The cells were harvested and subcultured for different incubation times (see. Table 1). Subsequently, the cell-free supermatant of each subculture was titrated on MT4 cells as described above.
# For the data in Table 1 HIV-1 strain IIIb (1,8×10^4 TCID50/ml) was placed on epithelial cells (10^6/petri dish) with or without inhibitors. After a 1-h incubation the cells were treated with trypsin to inactivate all extracellular HIV particles. Cells were incubated with fresh medium and the supernatants were harvested at different time points. Infectious virus in the supernatant was titrated on MT4 cells (see Materials and Methods). All experiments were performed in triplicate. The differences between the infectious titers with and without inhibitors are highly significant for all incubation times (P<0.001 by the Mann Whitney U test).
molecule,measurement,setting,value
"CO[C@H]1O[C@H](CO)[C@@H](O)[C@H](O)[C@@H]1O [aMMP, α-methyl-mannopyramoside]",reduction of the amount of infectious HIV 1 in the basal compartment,HIV-1 strain IIIb [1]; aMMP (100 mM),1 order of magnitude
same,amount of infectious HIV 1 in the basal compartment,HIV-1 strain IIIb [1]; preincubation with aMMP (100 mM),10^2 TCID50/ml
same,"transport of gp120-coated particles, % of the level for unstimulated cells",[2]; aMMP 100 mM final concentration,about 50%
same,HIV concn in the supernatant after treatm.,"HIV-1 strain IIIb [3]; aMMP (100 mM), 60 min. after trypsin treatm.",10^1 TCID50/ml
same,HIV concn in the supernatant after treatm.,"HIV-1 strain IIIb [3]; aMMP (100 mM), 120 min. after trypsin treatm.",10^1 TCID50/ml
same,HIV concn in the supernatant after treatm.,"HIV-1 strain IIIb [3]; aMMP (100 mM), 160 min after trypsin treatm.",10^1 TCID50/ml
same,HIV concn in the supernatant after treatm.,"HIV-1 strain IIIb [3]; aMMP (100 mM), 24 h after trypsin treatm.",10^1 TCID50/ml
"OC[C@H]1NC[C@@H](O)[C@@H](O)[C@@H]1O [desoxymannojirimycin, reference compound]",effect on the cAMP-stimulated increase of particles in the basal compartment (in words),"[2]; 2 h preincubation with 10 mM desoxymannojirimycin, FSK/IBMX stimulated cells",further augmentation
Mucin,amount of infectious HIV 1 in the basal compartment,HIV-1 strain IIIb [1]; mucin (30 mg/ml per method),10^2 TCID50/ml
same,HIV concn in the supernatant after treatm.,"HIV-1 strain IIIb [3]; Mucin (1 mM), 60 min. after trypsin treatm.",10^1 TCID50/ml
same,HIV concn in the supernatant after treatm.,"HIV-1 strain IIIb [3]; Mucin (1 mM), 120 min. after trypsin treatm.",10^1 TCID50/ml
same,HIV concn in the supernatant after treatm.,"HIV-1 strain IIIb [3]; Mucin (1 mM), 160 min after trypsin treatm.",10^1 TCID50/ml
same,HIV concn in the supernatant after treatm.,"HIV-1 strain IIIb [3]; Mucin (1 mM), 24 h after trypsin treatm.",10^1 TCID50/ml
same,inhibition of viral uptake and release of cell-free HIV-1 (in words),HIV-1 strain IIIb [3]; Table 1,significantly inhibit
mannan,reduction of the amount of infectious HIV 1 in the basal compartment,HIV-1 strain IIIb [1]; mannan (5 mM),1 order of magnitude
same,amount of infectious HIV 1 in the basal compartment,HIV-1 strain IIIb [1]; preincubation with mannan (5 mM),10^2 TCID50/ml
same,"transport of gp120-coated particles, % of the level for unstimulated cells",[2]; mannan 5 mg/ml final concentration,about 50%
same,HIV concn in the supernatant after treatm.,"HIV-1 strain IIIb [3]; Mannan (5 mM), 60 min. after trypsin treatm.",10^0 TCID50/ml
same,HIV concn in the supernatant after treatm.,"HIV-1 strain IIIb [3]; Mannan (5 mM), 120 min. after trypsin treatm.",10^1 TCID50/ml
same,HIV concn in the supernatant after treatm.,"HIV-1 strain IIIb [3]; Mannan (5 mM), 160 min after trypsin treatm.",10^1 TCID50/ml
same,HIV concn in the supernatant after treatm.,"HIV-1 strain IIIb [3]; Mannan (5 mM), 24 h after trypsin treatm.",10^1 TCID50/ml
